Data: patent US8394799B2, “Compounds that inhibit HIF-1 activity, the method for preparation thereof and the pharmaceutical composition containing them as an effective component” (Korea Research Institute of Bioscience and Biotechnology, priority 2006, dated 2013)
pIC50: −log10 of the molar value.

Legend:
[1] = tested on: EPO or VEGF; experiment: Expression of EPO or VEGF, target genes of HIF-1, in hypoxia (RT-PCR); type: cell-based, human; details: RT-PCR, 0, 1, 3 and 10 μM, 12 hrs in 1% O2, FIG. 3
Excerpt: The inhibitory effect of the compounds of the present invention on HIF-1 activity was confirmed by assaying the compounds prepared in Examples for inhibition activity on the expression of EPO or VEGF, a representative target gene of HIF-1 through an analysis of RT-PCR (reverse transcriptase polymerase chain reaction). VEGF, a target gene of HIF-1, encodes an angiogenesis factor playing a pivotal role in the growth and metastasis of cancer and EPO is a hematosis hormone gene, and both genes have been known for being deeply related to the development and the aggravation of cancer. The compounds of the present invention were measured for inhibition of VEGF expression in AGS, Hep3B and HepG2 cells. In this regard, the hepatocellular carcinoma cell line Hep3B was treated with compounds prepared in Examples 18 and 126 as follows.
After being grown to 70% confluency in culture dishes, HepG2 cells (American Type Culture Collection) were treated with various concentrations (0 μm, 1 μm 3 μM and 10 μm) of compounds prepared in Examples 18, 44, 113 or 126 and incubated for 12 hrs in hypoxia (1% O2, 94%, N2, and 5% CO2, expressed as ‘1% O2’ in FIG. 2). Total RNA was isolated using an RNA Mini kit (Qiagen). From the total RNA (2 μg) thus obtained, cDNA was synthesized using an RT-PCR kit (Invitrogen), and was used to amplify EPO or VEGF by PCR in the presence of EPO or VEGF-specific primers. EPO or VEGF expression was quantitatively analyzed by running the PCR products on agarose gel. As an internal control, GAPDH was simultaneously amplified so as to analyze the selective inhibition of each compound for VEGF. Base sequences of primers used for the amplification of EPO, VEGF and GAPDH used in the present invention were as follows.

[2] = tested on: HIF-1; experiment: Assay of IC50, AGS cells (HRE-luciferase transfected); type: cell-based; details: Homo sapiens
Excerpt: (§1) Six tandem repeats of HRE (hypoxia Responsive Element 5′-ACGTG-3′), which is present in a human VEGF gene, was inserted into the multi-cloning region of a pGL3-basic vector (Promega) containing a luciferase gene as a reporter gene to produce a recombinant pGL3-HRE-luciferase vector which was then used to assay the compounds prepared in the above Examples for inhibition activity against HIF-mediated transcriptional activity.

[3] = tested on: metastatic breast carcinoma cell line MDA-MB-435; experiment: In vivo anticancer activity in nude mice implanted with MDA-MB-435; details: for inhibition of the growth of the cancer cells compared to the control: once a day, MDA-MB-435 in nude mice; for deaths in six mice of each group: mouse, in vivo
Excerpt: Female nude mice 5-6 weeks old (Crj:BALB/c nu/nu, Charles River) were bred in germ-free breeding rooms maintained at constant temperature and humidity. The nude mice were anesthetized before incision of the chest skin. The metastatic breast carcinoma cell line MDA-MB-435, obtained from DR D. R. Welch, Univ. Alabama, was implanted at a count of 10^6 cells/mouse into the mammary gland fat pad, and the incisions were then closed with surgical clips. The nude mice were divided into test groups and a control group, each consisting of 6 mice. […] For the control group, Solution A alone was used at a dose of 100 μl once a day. Thereafter, tumor volumes and body weights were measured once a week. Tumor volumes were calculated according to the following Mathematic Formula 1. Tumor Volume (mm^3)=(Length of Long Axis,mm)×(Length of Short Axis,mm)^2×0.5 <Mathematic Formula 1>

[4] = tested on: HIF-1; experiment: HRE reporter assay, HIF activity % remaining, AGS cells; type: cell-based, human; details: summary in words of the data of Table 1 and Table 2; cell line not stated
Excerpt: as §1
The hepatocellular carcinoma cell line HepG2 or Hep3B, both available from ATCC (American Type Culture Collection), and the gastric carcinoma cell line AGS, available from ATCC, were grown at 70% confluency in culture dishes and co-transfected with an internal control vector (pRL-CMV, Promega) and the recombinant pGL3-HRE-luciferase vector using Lipofectamine Plus Reagent (Invitrogen). HepG2 and AGS cells were treated with the compound of Chemical Formula 1A while Hep3B and AGS cells were treated with the compound of Chemical Formula 1B. The compound of Chemical Formula 1A was used in a concentration of 10 μm for HepG2 or AGS cells. The compound of Chemical Formula 1B was used in a concentration of 30 μM for Hep3B and in a concentration of 10 μM for AGS cells. […] The compounds prepared in Examples above were assayed for inhibition activity against HIF-1 by measuring the activity of the luciferase, induced in hypoxia, using a Dual-luciferase reporter assay system (Promoga). In this regard, the luciferase activity was measured for 10 sec using a Microlumat Plus luminometer (EG&G Berthold). In the meanwhile, the renilla luciferase activity from the control vector PRL-CMV (Promega) was measured to normalize the data obtained.
On the basis of the renilla luciferase activity, the HIF activity % remaining after treatment with the compounds was corrected.

[5] = Acute toxicity, single oral administration in mice; details: mouse, in vivo, 300 mg/kg
Procedure: An acute cytotoxicity assay was conducted with five-week-old SPF C57BL/6 mice (Samtako BioKorea) as follows.

[6] = tested on: HIF-1; experiment: Assay of IC50, Hep3B cells (HRE-luciferase transfected); type: cell-based; details: Homo sapiens
Excerpt: as §1

[7] = tested on: HIF-1; experiment: Assay of IC50, SK-Hep-1 cells (same manner); type: cell-based; details: Homo sapiens, SK-HEP1; SK-Hep-1 cell line, compounds 0.01 to 100 μM for 16 hrs
Excerpt: as §1

SMILES | expression of EPO or VEGF in hypoxia [1] | pIC50 [2] | inhibition of the growth of the cancer cells compared to the control ([3]; 20 mg/kg) | inhibition of the growth of the cancer cells compared to the control ([3]; 50 mg/kg) | deaths in six mice of each group [3] | inhibition activity against the transcription mediated by HIF-1, induced in hypoxia [4] | toxicity (death, clinical syndromes, body weight, autopsy) [5] | pIC50 [6] | pIC50 [7]
COC(=O)c1ccc(O)c(NC(=O)COc2ccc(C34CC5CC(CC(C5)C3)C4)cc2)c1 [Example 18, 3-[2-(4-Adamantan-1-yl-phenoxy)acetyl-amino]-4-hydroxy benzoic acid methyl ester] | inhibit the expression of EPO or VEGF dose-dependently | 6.15 | 46.5% | 64.6% | No dead were observed | excellent inhibition activity | no toxicity | 5.59 | –
NC(=O)c1cccc(NC(=O)COc2ccc(C34CC5CC(CC(C5)C3)C4)cc2)c1 [Example 23, 3-[2-(4-Adamantan-1-yl-phenoxy)acetyl-amino]-benzamide] | – | 6.00 | – | – | – | excellent inhibition activity | – | 5.37 | –
O=C(COc1ccc(C23CC4CC(CC(C4)C2)C3)cc1)Nc1cccc(C(=O)O)c1 [Example 44, 3-[2-(4-Adamantan-1-yl-phenoxy)-acetylamino]-benzoic acid] | inhibit the expression of EPO or VEGF dose-dependently | 5.60 | – | – | – | excellent inhibition activity | – | 5.30 | –
O=C(COc1ccc(C23CC4CC(CC(C4)C2)C3)cc1)Nc1cc(C(=O)O)ccc1O [Example 48, 3-[2-(4-Adamantan-1-yl-phenoxy)-acetylamino]-4-hydroxy-benzoic acid] | – | 6.46 | – | – | – | excellent inhibition activity | – | 6.40 | –
NC(=O)c1ccnc(NC(=O)COc2ccc(C34CC5CC(CC(C5)C3)C4)cc2)c1 [Example 113, 2-[2-(4-adamantan-1-yl-phenoxy)acetylamino]-isonicotinamide] | inhibit the expression of EPO or VEGF dose-dependently | – | – | – | – | excellent inhibition activity | – | – | 6.23
COC(=O)c1ccc2[nH]c(COc3ccc(C45CC6CC(CC(C6)C4)C5)cc3)nc2c1 [Example 126, 2-(4-adamantan-1-yl-phenoxymethyl)-1H-benzoimidazole-5-carboxylic acid methyl ester] | inhibit the expression of EPO or VEGF dose-dependently | – | 53% | 58.6% | No dead were observed | excellent inhibition activity | no toxicity | – | –
